Assay results from ChEMBL document CHEMBL6182898, “Design, synthesis and bioevaluation of novel hydrazide derivatives as enhancers of immunotherapy and DNA-damage response in antitumor therapy” (Eur J Med Chem, 2025).
Activity calls are given as the source filed them. No cut-off for these calls is given here.

Legend:
[1] = Toxicity in male C57BL/6J mouse implanted with mouse B16-F10 cells assessed as histopathological damage in kidney at 50 mg/kg, IG treated for 14 days consecutively by H and E staining based analysis; assay type: organism-based; details: in vivo, po, 336 h, time 14 day
[2] = target: Programmed cell death 1 ligand 1 (Mus musculus, UniProt Q9EP73); assay: Induction of PD-L1 degradation in mouse B16-F10 cells incubated for 24 hrs by Western blot analysis; assay type: cell-based
[3] = test system: 4T1; assay: Induction of DNA damage in mouse 4T1 cells assessed as decrease in PARP1 level at 5 uM by immunofluorescence based analysis; assay type: functional, cell-based
[4] = test system: 4T1; assay: Antitumor activity against mouse 4T1 cells implanted in mouse at 50 mg/kg/day relative to control; assay type: functional; details: read-out: TGI
[5] = test system: 4T1; assay: Induction of DNA damage in mouse 4T1 cells implanted in mouse assessed as increase in gamma-H2AX level at 50 mg/kg/day by immunofluorescence based analysis; assay type: functional, organism-based
[6] = test system: 4T1; assay: Induction of DNA damage in mouse 4T1 cells implanted in mouse assessed as decrease in PARP level at 50 mg/kg/day by immunofluorescence based analysis; assay type: functional, organism-based
[7] = Tmax in male Sprague-Dawley rat at 20 mg/kg, po measured for 0.083 to 12 hrs by LC-MS/MS analysis; assay type: ADME, organism-based; details: in vivo, time 0.083-12 hrs
[8] = test system: B16-F10; assay: Induction of antitumor immunity in mouse B16-F10 cells implanted in male C57BL/6J mouse assessed as increase in T cell infiltration at 25 mg/kg, IG treated for 14 days consecutively in presence of NP-19 by immunofluorescence based analysis; assay type: functional, organism-based; details: time 14.0 day
[9] = AUC (0 to infinity) in male Sprague-Dawley rat at 20 mg/kg, po measured for 0.083 to 12 hrs by LC-MS/MS analysis; assay type: ADME, organism-based; details: in vivo, time 0.083-12 hrs
[10] = Clast in male Sprague-Dawley rat at 2 mg/kg, iv measured for 0.083 to 12 hrs by LC-MS/MS analysis; assay type: ADME, organism-based; details: in vivo, time 0.083-12 hrs
[11] = test system: B16-F10; assay: Induction of antitumor immunity in mouse B16-F10 cells implanted in male C57BL/6J mouse assessed as CD3+CD4+ T cell infiltration at 25 mg/kg, IG treated for 14 days consecutively in presence of NP-19 by flow cytometry (reference value: 7.4 %); assay type: functional; details: time 14 day
[12] = AUC (0 to infinity) in male Sprague-Dawley rat at 2 mg/kg, iv measured for 0.083 to 12 hrs by LC-MS/MS analysis; assay type: ADME, organism-based; details: in vivo, time 0.083-12 hrs
[13] = test system: B16-F10; assay: Induction of antitumor immunity in mouse B16-F10 cells implanted in male C57BL/6J mouse assessed as increase in T cell infiltration at 50 mg/kg, IG treated for 14 days consecutively by immunofluorescence based analysis; assay type: functional, organism-based; details: time 14.0 day
[14] = AUMC (0 to infinity) in male Sprague-Dawley rat at 20 mg/kg, po measured for 0.083 to 12 hrs by LC-MS/MS analysis; assay type: ADME, organism-based; details: in vivo, time 0.083-12 hrs
[15] = target: T1, Histone deacetylase 3 (Mus musculus) (UniProt O88895); assay: In vivo inhibition of HDAC3 in mouse B16-F10 cells implanted in male C57BL/6J mouse assessed as decrease in PD-L1 level at 50 mg/kg, IG treated for 14 days consecutively by immunofluorescence based analysis; assay type: functional, organism-based; details: time 14.0 day
T1 sequence (whole entry): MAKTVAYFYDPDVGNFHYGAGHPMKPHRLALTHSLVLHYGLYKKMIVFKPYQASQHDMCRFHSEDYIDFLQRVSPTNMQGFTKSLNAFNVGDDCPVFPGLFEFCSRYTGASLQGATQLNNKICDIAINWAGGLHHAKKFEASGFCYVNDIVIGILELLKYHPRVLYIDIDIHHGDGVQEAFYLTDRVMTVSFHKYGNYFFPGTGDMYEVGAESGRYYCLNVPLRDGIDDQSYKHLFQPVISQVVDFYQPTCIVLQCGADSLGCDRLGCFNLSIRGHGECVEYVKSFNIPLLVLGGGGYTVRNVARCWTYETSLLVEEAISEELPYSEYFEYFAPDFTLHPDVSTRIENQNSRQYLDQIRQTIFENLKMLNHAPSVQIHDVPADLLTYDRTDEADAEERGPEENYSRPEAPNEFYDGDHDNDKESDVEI

[16] = target: T1, Histone deacetylase 3 (Mus musculus); assay: In vivo inhibition of HDAC3 in mouse B16-F10 cells implanted in male C57BL/6J mouse assessed as increase in Ac-H3 level at 25 mg/kg, IG treated for 14 days consecutively in presence of NP-19 by immunofluorescence based analysis; assay type: functional, organism-based; details: time 14.0 day
[17] = target: T1, Histone deacetylase 3 (Mus musculus); assay: In vivo inhibition of HDAC3 in mouse B16-F10 cells implanted in male C57BL/6J mouse assessed as increase in Ac-H3 level at 50 mg/kg, IG treated for 14 days consecutively by Western blot analysis; assay type: functional, organism-based; details: time 14.0 day
[18] = MRT (0 to t) in male Sprague-Dawley rat at 20 mg/kg, po measured for 0.083 to 12 hrs by LC-MS/MS analysis; assay type: ADME, organism-based; details: in vivo, time 0.083-12 hrs
[19] = Toxicity in male C57BL/6J mouse implanted with mouse B16-F10 cells assessed as body weight change at 25 mg/kg, IG treated for 14 days consecutively in presence of NP-19; assay type: organism-based; details: in vivo, po, 336 h, time 14 day
[20] = test system: B16-F10; assay: Induction of antitumor immunity in mouse B16-F10 cells implanted in male C57BL/6J mouse assessed as CD3+CD4+ T cell infiltration at 50 mg/kg, IG treated for 14 days consecutively by flow cytometry (reference value: 7.4 %); assay type: functional; details: time 14 day
[21] = Oral bioavailability in male Sprague-Dawley rat at 20 mg/kg measured for 0.083 to 12 hrs by LC-MS/MS analysis; assay type: ADME, organism-based; details: in vivo, time 0.083-12 hrs
[22] = test system: 4T1; assay: Synergistic induction of DNA damage in mouse 4T1 cells implanted in mouse assessed as increase in gamma-H2AX level at 25 mg/kg/day in presence of olaparib by IHC analysis; assay type: functional, organism-based
[23] = test system: 4T1; assay: Synergistic induction of DNA damage in mouse 4T1 cells implanted in mouse assessed as decrease in PARP level at 25 mg/kg/day in presence of olaparib by immunofluorescence based analysis; assay type: functional, organism-based
[24] = test system: 4T1; assay: Induction of DNA damage in mouse 4T1 cells assessed as increase in gamma-H2AX level at 5 uM by immunofluorescence based analysis; assay type: functional, cell-based
[25] = target: T1, Histone deacetylase 3 (Mus musculus); assay: In vivo inhibition of HDAC3 in mouse B16-F10 cells implanted in male C57BL/6J mouse assessed as decrease in PD-L1 level at 50 mg/kg, IG treated for 14 days consecutively by Western blot analysis; assay type: functional, organism-based; details: time 14.0 day
[26] = Clast in male Sprague-Dawley rat at 20 mg/kg, po measured for 0.083 to 12 hrs by LC-MS/MS analysis; assay type: ADME, organism-based; details: in vivo, time 0.083-12 hrs
[27] = target: Programmed cell death 1 ligand 1 (Mus musculus) (UniProt Q9EP73); assay: Induction of PD-L1 degradation in mouse B16-F10 cells at 5 uM incubated for 24 hrs in presence of MG-132 by Western blot analysis; assay type: cell-based
[28] = test system: 4T1; assay: Synergistic induction of DNA damage in mouse 4T1 cells implanted in mouse assessed as increase in gamma-H2AX level at 25 mg/kg/day in presence of olaparib by Western blot analysis; assay type: functional, organism-based
[29] = Half life in male Sprague-Dawley rat at 20 mg/kg, po measured for 0.083 to 12 hrs by LC-MS/MS analysis; assay type: ADME, organism-based; details: in vivo, time 0.083-12 hrs

Programmed cell death 1 ligand 1 (Mus musculus), sequence (Q9EP73 whole entry): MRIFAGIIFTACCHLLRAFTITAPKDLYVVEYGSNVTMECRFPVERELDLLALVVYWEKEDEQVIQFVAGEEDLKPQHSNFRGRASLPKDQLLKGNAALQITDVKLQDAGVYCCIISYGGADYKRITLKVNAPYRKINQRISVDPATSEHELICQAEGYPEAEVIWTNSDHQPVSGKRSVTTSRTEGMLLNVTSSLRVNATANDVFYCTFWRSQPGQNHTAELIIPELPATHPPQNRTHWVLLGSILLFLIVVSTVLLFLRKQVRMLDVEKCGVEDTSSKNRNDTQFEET
Programmed cell death 1 ligand 1, sequence (Q9EP73 whole entry): as above

Tmax [7]: 0.72 h
AUC(0-inf) [9]: 32.1 ng·h/mL
Clast [10]: 0.24 ng/mL
AUC(0-inf) [12]: 658 ng·h/mL
AUMC [14]: 97.74 hr.hr.ug/L
inhibition [15]: Active
inhibition [16]: Active
inhibition [17]: Active
MRT last [18]: 2.57 h
bioavailability [21]: 0.49%
inhibition [25]: Active
Clast [26]: 0.27 ng/mL
half-life [29]: 2.84 h
Structure (SMILES): CCCNNC(=O)CCCCCCNC(=O)c1cnc(-c2ccc(NC(=O)OC(C)(C)C)cc2)s1
Activity [1]: Non-toxic
DC50 [2]: 4.17 µM
Activity [3]: Active
inhibition in vivo at 50 mg/kg/day [4]: 64%
Activity [5]: Active
Activity [6]: Active
Activity [8]: Active
Activity [11]: 28%
Activity [13]: Active
Activity [19]: Non-toxic
Activity [20]: 12%
Activity [22]: Active
Activity [23]: Active
Activity [24]: Active
Activity [27]: Active
Activity [28]: Active
